# Positions of bridges follow the written chain, without caps; N, C: chain ends. Non-standard residues stand in square brackets, D forms with d. Residues, ends and D or L forms follow the SMILES beside them. *: point of attachment. X1 = O=Cc1ccccc1NCc1cc(C(=O)*)ccc1B(O)O; X2 = CC(=O)c1ccc(OCC(=O)*)cc1B(O)O; Dap = NC[C@H](N)C(=O)O
# How the values were obtained:
# sortase A (SrtA) [1] = biological target: T1, sortase A (SrtA) (Staphylococcus aureus, UniProt Q2FV99); assay: SrtA binding kinetics, competition assay using W7-F as fluorescence reporter
# T1 sequence (Q2FV99 whole entry): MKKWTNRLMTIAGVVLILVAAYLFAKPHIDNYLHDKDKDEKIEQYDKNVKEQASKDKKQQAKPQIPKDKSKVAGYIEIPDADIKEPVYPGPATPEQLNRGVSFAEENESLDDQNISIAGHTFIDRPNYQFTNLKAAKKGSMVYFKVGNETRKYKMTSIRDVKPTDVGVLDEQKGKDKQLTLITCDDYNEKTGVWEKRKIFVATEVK
# Experimental: FIG. 1 illustrates reversible covalent inhibition of SrtA. […] The peptide's termini and the proximal lysine residues are labeled with the lysine ε-amines colored blue. […] FIG. 1(d) and FIG. 1(e) show SrtA binding kinetics of P3 and P5 recorded via a competition assay using W7-F as a fluorescence reporter.
# Kinetic characterization of the P5-SrtA binding yielded a kon of 6.3 M^−1 s^−1, which is ˜300 times faster than the RMR1-lysine conjugation. The koff was determined to be 8.2×10^−6 s^−1, 4 times slower than the RMR1-lysine conjugation. The faster on-rate and slower off-rate are expected for the cooperative action between the covalent warhead and the W7 peptide that binds SrtA noncovalently.
# sortase A (SrtA) [2] = biological target: T1, sortase A (SrtA); assay: biochemical; format: binding
# Experimental: For peptide conjugation, a —COOH derivative of RMR1 and 2-APBA was synthesized respectively. […] The resulting peptides were assessed for SrtA binding through a fluorescence polarization-based competition assay, in which a fluorophore labeled W7 (W7-F) was used as a reporter.
# [3] = system: SrtA on live S. aureus cells; assay: SrtA inhibition on live S. aureus cells, labeling by fluorescent SrtA substrate FAM-GSLPETGGS, flow cytometry; format: cell-based, Staphylococcus aureus; conditions: live S. aureus in LB media, read-out: IC50 of SrtA-mediated fluorescence labeling
# Experimental: The peptides for SrtA inhibition on live S. aureus cells was further tested. A fluorescently labeled SrtA substrate (FAM-GSLPETGGS) was mixed with S. aureus in LB media with or without a peptide inhibitor. The SrtA-mediated bacterial labeling was assessed using fluorescence microscopy and flow cytometry.
# [4] = system: SrtA on live S. aureus cells; assay: Long-lasting SrtA inhibition on S. aureus cells after washing away unbound inhibitor; format: cell-based, Staphylococcus aureus; conditions: unbound inhibitor washed away before substrate added, flow cytometry after 6 hours of incubation
# Experimental: To test this hypothesis, the S. aureus cells was treated with P5 and then the unbound inhibitor was washed away before the fluorescent SrtA substrate was added. The S. aureus cells were subjected to flow cytometry analysis after 6 hours of incubation.
smiles,measurement,setting,value
CC[C@H](C)[C@@H]1NC(=O)[C@H](CC(C)C)NC(=O)[C@@H](NC(=O)[C@H](C)N)CSSC[C@@H](C(=O)NCC(=O)NCC(=O)NCC(=O)N[C@@H](CNC(=O)COc2ccc(C(C)=O)c(B(O)O)c2)C(N)=O)NC(=O)CNC(=O)CNC(=O)[C@H](Cc2c[nH]c3ccccc23)NC(=O)[C@H]([C@@H](C)O)NC(=O)[C@@H]2CCCN2C1=O [Compound P3] (H-ACLIPTWGGCGGG[Dap](X2)-NH2; disulfide 2-10),SrtA binding kinetics in words,sortase A (SrtA) [1],reached equilibrium instantaneously
same,IC50,sortase A (SrtA) [2],4.6 µM
same,IC50,[3],3.7 µM
same,inhibition of SrtA-mediated fluorescence labeling after washing,[4],marginal reduction
CC[C@H](C)[C@@H]1NC(=O)[C@H](CC(C)C)NC(=O)[C@@H](NC(=O)[C@H](C)NC(C)=O)CSSC[C@@H](C(=O)NCC(=O)NCC(=O)NCC(=O)N[C@@H](CNC(=O)c2ccc(B(O)O)c(CNc3ccccc3C=O)c2)C(N)=O)NC(=O)CNC(=O)CNC(=O)[C@H](Cc2c[nH]c3ccccc23)NC(=O)[C@H]([C@@H](C)O)NC(=O)[C@@H]2CCCN2C1=O [Compound P5] (Ac-ACLIPTWGGCGGG[Dap](X1)-NH2; disulfide 2-10),koff,sortase A (SrtA) [1],8.2e-06 s⁻¹
same,"koff, times slower than the RMR1-lysine conjugation",sortase A (SrtA) [1],4 times
same,kon,sortase A (SrtA) [1],6.3 M⁻¹ s⁻¹
same,"kon, times faster than the RMR1-lysine conjugation",sortase A (SrtA) [1],~300 times
same,IC50,sortase A (SrtA) [2],1.3 µM
CC[C@H](C)[C@@H]1NC(=O)[C@H](CC(C)C)NC(=O)[C@@H](NC(=O)[C@H](C)N)CSSC[C@@H](C(N)=O)NC(=O)CNC(=O)CNC(=O)[C@H](Cc2c[nH]c3ccccc23)NC(=O)[C@H]([C@@H](C)O)NC(=O)[C@@H]2CCCN2C1=O [Compound W7] (H-ACLIPTWGGC-NH2; disulfide 2-10),IC50,sortase A (SrtA) [2],17 µM
CC[C@H](C)[C@@H]1NC(=O)[C@H](CC(C)C)NC(=O)[C@@H](NC(=O)[C@H](C)NC(=O)CNC(=O)CNC(=O)CNC(=O)COc2ccc(C(C)=O)c(B(O)O)c2)CSSC[C@@H](C(N)=O)NC(=O)CNC(=O)CNC(=O)[C@H](Cc2c[nH]c3ccccc23)NC(=O)[C@H]([C@@H](C)O)NC(=O)[C@@H]2CCCN2C1=O [Compound P7] (X2-GGGACLIPTWGGC-NH2; disulfide 5-13),IC50,sortase A (SrtA) [2],4.5 µM
CC[C@H](C)[C@@H]1NC(=O)[C@H](CC(C)C)NC(=O)[C@@H](NC(=O)[C@H](C)NC(=O)CNC(=O)CNC(=O)CNC(=O)c2ccc(B(O)O)c(CNc3ccccc3C=O)c2)CSSC[C@@H](C(N)=O)NC(=O)CNC(=O)CNC(=O)[C@H](Cc2c[nH]c3ccccc23)NC(=O)[C@H]([C@@H](C)O)NC(=O)[C@@H]2CCCN2C1=O [Compound P8] (X1-GGGACLIPTWGGC-NH2; disulfide 5-13),IC50,sortase A (SrtA) [2],3.8 µM
